Results: patent US12018011B2, “Macrocyclic compounds and compositions, and methods of preparing and using the same” (Kura Oncology, Inc., priority 2021, dated 2024)

Molecular target: T1, Recombinant human farnesyl transferase (FTase) (Homo sapiens, UniProt P49356)
T1 construct: purchased Crelux (Martinsried, Germany)
Test: FTase fluorescence assay (farnesylation of dansyl-GCVLS peptide)
Format: biochemical
Details: recombinant human FTase 2.5 nM, Dansyl-GCVLS 85 nM, FPP 30 nM, 30° C., 50 minutes
Description: T24/83 cell line was purchased from the European Collection of Authenticated Cell Cultures (Salisbury, UK). Recombinant human farnesyl transferase (FTase) and geranylgeranyl transferase type-1 (GGTase) were obtained from Crelux (Martinsried, Germany). Dansyl labelled GCVLS peptide was purchased from Bachem (Torrance, CA), and Dansyl labelled GCVLL peptide was purchased from Bio Synthesis (Lewisville, TX). Farnesyl Pyrophosphate (FPP) and Geranylgeranyl pyrophosphate (GGPP) were purchased from Cayman (Ann Arbor, MI).
Specific biochemical activity of the compounds disclosed herein as FTase inhibitors was determined by measuring the ability of the compounds to block the farnesylation by recombinant FTase of fluorescent (i.e., dansyl-labeled) test substrates derived from the CAAX box of farnesylated proteins, such as the peptide GCVLS.
The IC50 value of the compounds disclosed herein as inhibitors of Ftase and/or GGTase, was determined by measuring the concentration (provided in nM) necessary to achieve inhibition of enzyme activity by 50% (IC50). […] Compounds having a low IC50 value against FTase, for example an IC50 (FTase)<100 nM, such as an IC50 (FTase)<10 nM, are preferred. Compounds having a low IC50 value against FTase and a high IC50 value against GGTase, for example an IC50 (FTase)<100 nM, such as an IC50 (FTase)<10 nM, and an IC50 (GGTase)>100 nM, are potent and selective inhibitors of FTase, and are particularly preferred.
The inhibition activities of the compounds disclosed herein against Ftase and GGTase were measured in the respective fluorescence assays as follows:
For the FTase assay, recombinant human FTase (2.5 nM), Dansyl labelled GCVLS peptide (85 nM), FPP (30 nM) and inhibitor were mixed in assay buffer (50 mM Tris, pH 7.5, 10 mM magnesium chloride, 10 μM zinc chloride, 0.08% CHAPS, 5 mM dithiothreitol) and incubated in a total volume of 20 μL at 30° C. for 50 minutes.
For both the FTase assay and GGTase assay, fluorescence intensity was detected (excitation at 340 nm and emission at 486 nm) using EnVision (PerkinElmer; Waltham, MA), IC50 determinations were performed using a sigmoidal dose-response model with Xlfit software (IDBS, Inc.; Boston, MA), and tipifarnib was used as a positive control. All the assay plates for each assay passed the QC criteria (S/B, Z factor).

IC50 [nM] | SMILES
10 to 100 | [2H]C([2H])([2H])n1c(=O)cc2c3cc(ccc31)[C@H](n1cnc(C)n1)c1ccc(Cl)c(c1)COc1cccc-2c1 [(S)-080, (S)-4^4-chloro-2^1-(methyl-d3)-3-(3-methyl-1H-1,2,4-triazol-1-yl)-2^1,2^2-dihydro-6-oxa-2(4,6)-quinolina-1,4(1,3)-dibenzenacyclohexaphan-2^2-one]
≤ 10 | Cn1cncc1[C@@]1(N)c2ccc(C#N)c(c2)COc2cccc(c2)-c2nccc3ccc1cc23 [(S)-86, (S)-3-amino-3-(1-methyl-1H-imidazol-5-yl)-6-oxa-2(1,7)-isoquinolina-1,4(1,3)-dibenzenacyclohexaphane-4^4-carbonitrile]
≤ 10 | Cn1cncc1[C@@]1(N)c2ccc(C#N)c(c2)COc2cccc(c2)-c2cc(OC3COC3)nc3ccc1cc23 [(S)-89, (S)-3-amino-3-(1-methyl-1H-imidazol-5-yl)-2^2-(oxetan-3-yloxy)-6-oxa-2(4,6)-quinolina-1,4(1,3)-dibenzenacyclohexaphane-4^4-carbonitrile]
10 to 100 | Cc1cn([C@@H]2c3ccc(C#N)c(c3)COc3cccc(c3)-c3cc(C#N)nc4ccc2cc34)cn1 [(S)-90, (S)-3-(4-methyl-1H-imidazol-1-yl)-6-oxa-2(4,6)-quinolina-1,4(1,3)-dibenzenacyclohexaphane-2^2,4^4-dicarbonitrile]
> 100 | Cc1cncn1[C@@H]1c2ccc(C#N)c(c2)COc2cccc(c2)-c2cc(C#N)nc3ccc1cc23 [(S)-91, (S)-3-(5-methyl-1H-imidazol-1-yl)-6-oxa-2(4,6)-quinolina-1,4(1,3)-dibenzenacyclohexaphane-2^2,4^4-dicarbonitrile]
10 to 100 | Cn1cncc1C1(O)c2cccc(c2)CCc2cccc(c2)-c2cc(=O)[nH]c3ccc1cc23 (stereo not drawn) [Compound 1, 3-hydroxy-3-(1-methyl-1H-imidazol-5-yl)-2^1,2^2-dihydro-2(4,6)-quinolina-1,4(1,3)-dibenzenacyclohexaphan-2^2-one]
≤ 10 | COc1cc2c3cc(ccc3n1)C(O)(c1cncn1C)c1ccc(C#N)c(c1)CCc1cccc-2c1 (stereo not drawn) [Compound 5, 3-hydroxy-2^2-methoxy-3-(1-methyl-1H-imidazol-5-yl)-2(4,6)-quinolina-1,4(1,3)-dibenzenacyclohexaphane-4^4-carbonitrile]
> 100 | COc1cc2c3cc(ccc3n1)C(O)(c1cncn1C)c1cccc(c1)OCc1cccc-2c1 (stereo not drawn) [Compound 10, 2^2-methoxy-3-(1-methyl-1H-imidazol-5-yl)-5-oxa-2(4,6)-quinolina-1,4(1,3)-dibenzenacyclohexaphan-3-ol]
> 100 | COc1cc2c3cc(ccc3n1)C(O)(c1cncn1C)c1ccc(Cl)c(c1)OCc1cccc-2c1 (stereo not drawn) [Compound 12, 4^4-chloro-2^2-methoxy-3-(1-methyl-1H-imidazol-5-yl)-5-oxa-2(4,6)-quinolina-1,4(1,3)-dibenzenacyclohexaphan-3-ol]
10 to 100 | COc1cc2c3cc(ccc3n1)C(O)(c1cncn1C)c1ccc(C#N)c(c1)OCc1cccc-2c1 (stereo not drawn) [Compound 16, 3-hydroxy-2^2-methoxy-3-(1-methyl-1H-imidazol-5-yl)-5-oxa-2(4,6)-quinolina-1,4(1,3)-dibenzenacyclohexaphane-4^4-carbonitrile]
≤ 10 | Cn1cncc1C1(O)c2ccc(C#N)c(c2)OCc2cccc(c2)-c2cc(=O)[nH]c3ccc1cc23 (stereo not drawn) [Compound 17, 3-hydroxy-3-(1-methyl-1H-imidazol-5-yl)-2^2-oxo-2^1,2^2-dihydro-5-oxa-2(4,6)-quinolina-1,4(1,3)-dibenzenacyclohexaphane-4^4-carbonitrile]
10 to 100 | Cn1cnnc1C1(O)c2ccc(Cl)c(c2)OCCc2cccc(c2)-c2cc(=O)[nH]c3ccc1cc23 (stereo not drawn) [Compound 31, 4^4-chloro-3-hydroxy-3-(4-methyl-4H-1,2,4-triazol-3-yl)-2^1,2^2-dihydro-5-oxa-2(4,6)-quinolina-1,4(1,3)-dibenzenacycloheptaphan-2^2-one]
10 to 100 | [2H]C([2H])([2H])n1c(=O)cc2c3cc(ccc31)C(O)(c1nncn1C)c1ccc(Cl)c(c1)OCCc1cccc-2c1 (stereo not drawn) [Compound 32, 4^4-chloro-3-hydroxy-2^1-(methyl-d3)-3-(4-methyl-4H-1,2,4-triazol-3-yl)-2^1,2^2-dihydro-5-oxa-2(4,6)-quinolina-1,4(1,3)-dibenzenacycloheptaphan-2^2-one]
10 to 100 | [2H]C([2H])([2H])OC1(c2nncn2C)c2ccc(Cl)c(c2)OCCc2cccc(c2)-c2cc(=O)n(C([2H])([2H])[2H])c3ccc1cc23 (stereo not drawn) [Compound 33, 4^4-chloro-3-(methoxy-d3)-2^1-(methyl-d3)-3-(4-methyl-4H-1,2,4-triazol-3-yl)-2^1,2^2-dihydro-5-oxa-2(4,6)-quinolina-1,4(1,3)-dibenzenacycloheptaphan-2^2-one]
≤ 10 | Cn1cnnc1C1(O)c2ccc(C#N)c(c2)OCCc2cccc(c2)-c2cc(=O)n(C)c3ccc1cc23 (stereo not drawn) [Compound 38, 3-hydroxy-2^1-methyl-3-(4-methyl-4H-1,2,4-triazol-3-yl)-2^2-oxo-2^1,2^2-dihydro-5-oxa-2(4,6)-quinolina-1,4(1,3)-dibenzenacycloheptaphane-4^4-carbonitrile]
≤ 10 | CNC1(c2nncn2C)c2ccc(Cl)c(c2)COc2cccc(c2)-c2cc(=O)n(C)c3ccc1cc23 (stereo not drawn) [Compound 50, 4^4-chloro-2^1-methyl-3-(4-methyl-4H-1,2,4-triazol-3-yl)-3-(methylamino)-2^1,2^2-dihydro-6-oxa-2(4,6)-quinolina-1,4(1,3)-dibenzenacyclohexaphan-2^2-one]
≤ 10 | COc1cc2c3cc(ccc3n1)C(O)(c1cncn1C)c1ccc(C#N)c(c1)COc1cccc-2c1 (stereo not drawn) [Compound 53, 3-hydroxy-2^2-methoxy-3-(1-methyl-1H-imidazol-5-yl)-6-oxa-2(4,6)-quinolina-1,4(1,3)-dibenzenacyclohexaphane-4^4-carbonitrile]
≤ 10 | Cn1cncc1C1(O)c2ccc(C#N)c(c2)COc2cccc(c2)-c2cc(=O)[nH]c3ccc1cc23 (stereo not drawn) [Compound 54, 3-hydroxy-3-(1-methyl-1H-imidazol-5-yl)-2^2-oxo-2^1,2^2-dihydro-6-oxa-2(4,6)-quinolina-1,4(1,3)-dibenzenacyclohexaphane-4^4-carbonitrile]
10 to 100 | Cn1cncc1C1(O)c2cccc(c2)CCOc2cccc(c2)-c2cc(=O)n(C)c3ccc1cc23 (stereo not drawn) [Compound 63, 3-hydroxy-2^1-methyl-3-(1-methyl-1H-imidazol-5-yl)-2^1,2^2-dihydro-7-oxa-2(4,6)-quinolina-1,4(1,3)-dibenzenacycloheptaphan-2^2-one]
> 100 | COc1cc2c3cc(ccc3n1)C(O)(c1cncn1C)c1ccc(Cl)c(c1)CCOc1cccc-2c1 (stereo not drawn) [Compound 64, 4^4-chloro-2^2-methoxy-3-(1-methyl-1H-imidazol-5-yl)-7-oxa-2(4,6)-quinolina-1,4(1,3)-dibenzenacycloheptaphan-3-ol]
10 to 100 | Cn1cncc1C1(N)c2ccc(C#N)c(c2)COc2cccc(c2)-c2cc(N3CCNCC3)nc3ccc1cc23 (stereo not drawn) [Compound 67, 3-amino-3-(1-methyl-1H-imidazol-5-yl)-2^2-(piperazin-1-yl)-6-oxa-2(4,6)-quinolina-1,4(1,3)-dibenzenacyclohexaphane-4^4-carbonitrile]
